For this assay, the target named is T1, human factor VIIa and TF (factor VIIa/TF) (Homo sapiens, UniProt P08709).
T1 construct: human factor VIIa and TF (5 nM and 10 nM, respective final concentration)
T1 sequence (P08709 61-212 limits assumed): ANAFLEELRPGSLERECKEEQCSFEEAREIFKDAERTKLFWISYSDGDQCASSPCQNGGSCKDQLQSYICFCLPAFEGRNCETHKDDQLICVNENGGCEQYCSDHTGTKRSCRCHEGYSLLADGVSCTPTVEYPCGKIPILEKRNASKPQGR
T1 sequence (P08709 213-466 limits assumed): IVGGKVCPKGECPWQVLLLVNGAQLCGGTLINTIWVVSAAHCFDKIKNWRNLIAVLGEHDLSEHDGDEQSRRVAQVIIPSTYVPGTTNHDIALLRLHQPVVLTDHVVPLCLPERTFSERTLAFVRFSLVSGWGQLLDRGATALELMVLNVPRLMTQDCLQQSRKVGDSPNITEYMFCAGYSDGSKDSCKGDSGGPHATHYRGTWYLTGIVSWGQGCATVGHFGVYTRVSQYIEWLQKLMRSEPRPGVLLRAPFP
T1 sequence (P13726 33-295 partner): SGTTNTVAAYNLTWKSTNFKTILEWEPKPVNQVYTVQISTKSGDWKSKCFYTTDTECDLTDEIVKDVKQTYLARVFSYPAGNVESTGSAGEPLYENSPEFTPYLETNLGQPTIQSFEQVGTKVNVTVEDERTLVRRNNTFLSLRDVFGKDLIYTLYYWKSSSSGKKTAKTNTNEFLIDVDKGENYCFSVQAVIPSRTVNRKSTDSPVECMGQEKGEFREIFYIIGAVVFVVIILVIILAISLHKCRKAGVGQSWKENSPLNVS
In words: Factor VIIa (FVIIa) chromogenic assay. The class given is biochemical. Conditions: inhibition constant towards factor VIIa/TF activity; chromogenic substrate S-2288 500 μM; 25° C.; 15 minute preincubation; factor VIIa 5 nM, TF 10 nM. On the procedure:
The ability of compounds of formula I to inhibit factor VIIa or other enzymes like factor Xa, thrombin, plasmin, or trypsin can be assessed by determining the concentration of the compound of formula I that inhibits enzyme activity by 50%, i.e., the IC50 value, which is related to the inhibition constant Ki. Purified enzymes are used in chromogenic assays. The concentration of inhibitor that causes a 50% decrease in the rate of substrate hydrolysis is determined by linear regression after plotting the relative rates of hydrolysis (compared to the uninhibited control) versus the log of the concentration of the compound of formula I. For calculating the inhibition constant Ki, the IC50 value is corrected for competition with substrate using the formula Ki=IC50/[1+(substrate concentration/Km)] wherein Km is the Michaelis-Menten constant (Chen and Prusoff, Biochem. Pharmacol. 22 (1973), 3099-3108; I. H. Segal, Enzyme Kinetics, 1975, John Wiley & Sons, New York, 100–125; which are incorporated herein by reference). Factor VIIa (FVIIa) Assay:
The inhibitory activity (expressed as inhibition constant Ki (FVIIa)) of compounds of formula I towards factor VIIa/TF activity was determined using a chromogenic assay essentially as described previously (J. A. Ostrem et al., Biochemistry 37 (1998) 1053–1059, which is incorporated herein by reference). Kinetic assays were conducted at 25° C. in half-area microtiter plates (Costar Corp., Cambridge, Mass.) using a kinetic plate reader (Molecular Devices Spectramax 250). A typical assay consisted of 25 μl human factor VIIa and TF (5 nM and 10 nM, respective final concentration) combined with 40 μl of inhibitor dilutions in 10% DMSO/TBS-PEG buffer (50 mM Tris, 15 mM NaCl, 5 mM CaCl2, 0.05% PEG 8000, pH 8.15). Following a 15 minute preincubation period, the assay was initiated by the addition of 35 μl of the chromogenic substrate S-2288 (D-IIe-Pro-Arg-p-nitroanilide, Pharmacia Hepar Inc., 500 μM final concentration).
Broadly, the Ki is a dissociation constant, usually derived from enzyme kinetics or from competition with a known ligand. Low values mean tighter binding, high ones weaker binding. `N=C(N)c1ccc(NC(=O)C(C(=O)OCc2ccccc2)c2ccccc2)cc1` (stereo not drawn) [Example 1, N-(4-Carbamimidoyl-Phenyl)-2-Phenyl-Malonamic Acid Benzyl Ester] registered a Ki of 14 µM.

The compound `CC(NC(=O)C(C(=O)Nc1ccc(C(=N)N)cc1)c1ccccc1)c1ccc([N+](=O)[O-])cc1` (stereo not drawn) [Example 3, N-(4-Carbamimidoyl-Phenyl)-N′-[1-(4-Nitro-Phenyl)-Ethyl]-2-Phenyl-Malonamide, Formiate] gave a Ki of 0.198 µM.

Take `N#CC(NC(=O)C(C(=O)Nc1ccc(C(=N)N)cc1)c1ccccc1)c1ccccc1` (stereo not drawn) [Example 6]: the affinity corresponds to a Ki of 3.82 µM.

`COc1ccc2c(c1)C[C@@H](NC(=O)C(C(=O)Nc1ccc(C(=N)N)cc1)c1ccccc1)CC2` (stereo partly drawn) [Example 8] gave a Ki of 7.12 µM.

Compound `C[C@H](NC(=O)C(C(=O)Nc1ccc(C(=N)N)cc1)c1ccccc1)c1ccc(Br)cc1` (stereo partly drawn) [Example 12] came in with an inhibition constant (Ki) of 0.301 µM.

Compound `N=C(N)c1ccc(NC(=O)C(C(=O)NCc2c(Cl)cccc2Oc2ccccc2)c2ccccc2)cc1` (stereo not drawn) [Example 17] came in with a Ki of 6.62 µM.

`C[C@H](NC(=O)C(C(=O)Nc1ccc(C(=N)N)cc1)c1ccccc1)c1cccc(Br)c1` (stereo partly drawn) [Example 23]: the Ki was 0.157 µM.

In turn, `COc1ccc([C@H](C)NC(=O)C(C(=O)Nc2ccc(C(=N)N)cc2)c2ccccc2)cc1` (stereo partly drawn) [Example 26] yielded a Ki of 0.381 µM.

`N=C(N)c1ccc(NC(=O)C(C(=O)NCc2ccc(-c3csnn3)cc2)c2ccccc2)cc1` (stereo not drawn) [Example 28] registered a Ki of 6.02 µM.

`N=C(N)c1ccc(NC(=O)C(C(=O)NCc2cccc([N+](=O)[O-])c2)c2ccccc2)cc1` (stereo not drawn) [Example 35] displayed a Ki of 3.01 µM. This Ki is about 2-fold lower than that of the compound before.

With `COc1ccc(CNC(=O)C(C(=O)Nc2ccc(C(=N)N)cc2)c2ccccc2)cc1OC` (stereo not drawn) [Example 38], the Ki is 17.4 µM.

As to `N=C(N)c1ccc(NC(=O)C(CCc2ccccc2)C(=O)NCc2ccccc2)cc1` (stereo not drawn) [Example 40], the Ki was determined as 2.81 µM.

In turn, `C[C@H](NC(=O)C(CCc1ccccc1)C(=O)Nc1ccc(C(=N)N)cc1)c1ccc2ccccc2c1` (stereo partly drawn) [Example 42] registered a Ki of 17.1 µM.

As to `C[C@H](NC(=O)C(C(=O)Nc1ccc(C(=N)N)cc1)c1ccccc1)c1ccc2ccccc2c1` (stereo partly drawn) [Example 43], the Ki was found to be 0.124 µM.

Turning to `C[C@H](NC(=O)CC(=O)Nc1ccc(C(=N)N)cc1)c1ccc2ccccc2c1` [Example 44], the Ki turned out to be 0.376 µM.

The record behind these values is patent publication US7153876B2, “Malonamid and malonamic ester derivatives with antithrombotic activity, their preparation, and their use” (Sanofi-Aventis Deutschland GmbH, priority 2000, dated 2006).
